The numbers were not newly measured in publication PMC7590008, “Slow Dissolution Kinetics of Model Peptide Fibrils” (International Journal of Molecular Sciences, 2020), which cites them from elsewhere.

Counter-ions that a name gives are not always drawn.

For the data set the following is noted: can be considered a strong acid. From the text:
First of all, for c<cs , the pH ≈6.3 is essentially the same as that of pure water (with some dissolved CO 2 ). This means that the A 8 K is a neutral salt and not a net acid or base. This implies that we can write the compound as PH ^+ TFA ^− , where P stands for the A 8 K peptide. The dry compound is a TFA salt, but with only one TFA counterion, because the carboxyl group is neutralized by one of the two ammonium groups ...

As to `O=C(O)C(F)(F)F` [TFA, Trifluoroacetate], the pK a result is “≈ 1”.
